Reference: article PMC11678245, “The Molecular Basis of the Intrinsic and Acquired Resistance to Azole Antifungals in Aspergillus fumigatus” (Journal of Fungi, 2024)
“And” between values parts separate entries of the source, which are not always exact repeats. Identical values can stand only once. Like-named read-outs stand apart in the source and are kept apart here.

Legend:
[1] = test system: S. cerevisiae strain ADΔΔ (native ScCYP51); assay: MIC80 susceptibility, host strain ADΔΔ; format: cell-based; conditions: Saccharomyces cerevisiae, Table 2, SD pH 6.8, 48 h, 30 °C
Description: (§1) The susceptibilities of S. cerevisiae strains to antifungal drugs were determined as minimum growth inhibitory concentration (MIC) values in 200 μL SD pH 6.8 [24]. Serial 2-fold dilutions of 100 μL of azole or control drugs in SD pH 6.8 were prepared in a 96-well microtiter plate. A portion of a 2 mL SD pH 6.8 overnight culture of the test strain was inoculated into 3 mL fresh SD pH 6.8 and incubated for 4 to 6 h at 30 °C to generate logarithmic-phase cells. These cells were then diluted with fresh SD pH 6.8 to OD600nm = 0.01 (3 × 10^4 CFU), and 100 μL of this cell suspension was added to microtiter plate wells. Cell growth after 48 h incubation at 30 °C with shaking at 200 rpm was determined at 600 nm using a BioTek™ Synergy™ 2 multi-Mode microplate reader controlled using Gen5™ Data Analysis Software version 3.16.10 (BioTek Instruments, Winooski, VT, USA). MIC80 values (80% growth inhibition in the presence of the test drug compared with the untreated control) for each yeast construct were determined as technical triplicates repeated three times for three separate clones.

[2] = test system: S. cerevisiae strain ADLS overexpressing ScCYP51-6×His; assay: MIC80 susceptibility, strain ADLS; format: cell-based, Saccharomyces cerevisiae
Description: as §1

[3] = test system: S. cerevisiae strain A (AfCyp51A-6×His, native ScCyp51 retained); assay: MIC80 susceptibility, strain A; format: cell-based; conditions: Saccharomyces cerevisiae, Table 2, SD pH 6.8, 48 h, 30 °C
Description: as §1

[4] = test system: S. cerevisiae strain AR (AfCyp51A-6×His, AfCprA2-6×His); assay: MIC80 susceptibility, strain AR; format: cell-based, Saccharomyces cerevisiae; conditions: Saccharomyces cerevisiae, 48 h, pH 6.8
Description: as §1

[5] = test system: S. cerevisiae strain ARE (AfCyp51A-6×His, AfCprA2, AfErg6-FLAG); assay: MIC80 susceptibility, strain ARE; format: cell-based, Saccharomyces cerevisiae
Description: as §1

[6] = test system: S. cerevisiae strain ARE Y121F (AfCyp51A-6×His Y121F, AfCprA2, AfErg6-FLAG); assay: MIC80 susceptibility, strain Y121F; format: cell-based, Saccharomyces cerevisiae
Description: as §1

[7] = test system: S. cerevisiae strain ARE T289A (AfCyp51A-6×His T289A, AfCprA2, AfErg6-FLAG); assay: MIC80 susceptibility, strain T289A; format: cell-based, Saccharomyces cerevisiae; conditions: for MIC80: ± SD
Description: as §1

[8] = test system: S. cerevisiae strain ARE Y121F T289A (AfCyp51A-6×His Y121F T289A, AfCprA2, AfErg6-FLAG); assay: MIC80 susceptibility, strain Y121F T289A; format: cell-based, Saccharomyces cerevisiae
Description: as §1

[9] = test system: S. cerevisiae strain ARE I301T (AfCyp51A-6×His I301T, AfCprA2, AfErg6-FLAG); assay: MIC80 susceptibility, strain I301T; format: cell-based, Saccharomyces cerevisiae; conditions: for MIC80: ± SD
Description: as §1

[10] = test system: S. cerevisiae strain BR (AfCyp51B-6×His, AfCprA2-6×His); assay: MIC80 susceptibility, strain BR; format: cell-based; conditions: Saccharomyces cerevisiae, 48 h, pH 6.8
Description: as §1

[11] = test system: S. cerevisiae strain BRE (AfCyp51B-6×His, AfCprA2, AfErg6-FLAG); assay: MIC80 susceptibility, strain BRE; format: cell-based, Saccharomyces cerevisiae; conditions: strain BRE; for MIC80 / MIC: ± SD; for MIC: 48 h
Description: as §1

AfCYP51B-6×His = target: T1, AfCYP51B-6×His (Aspergillus fumigatus, UniProt E9QY26); assay: Type II binding of azole drugs (difference spectra)
T1 sequence (E9QY26 1-524): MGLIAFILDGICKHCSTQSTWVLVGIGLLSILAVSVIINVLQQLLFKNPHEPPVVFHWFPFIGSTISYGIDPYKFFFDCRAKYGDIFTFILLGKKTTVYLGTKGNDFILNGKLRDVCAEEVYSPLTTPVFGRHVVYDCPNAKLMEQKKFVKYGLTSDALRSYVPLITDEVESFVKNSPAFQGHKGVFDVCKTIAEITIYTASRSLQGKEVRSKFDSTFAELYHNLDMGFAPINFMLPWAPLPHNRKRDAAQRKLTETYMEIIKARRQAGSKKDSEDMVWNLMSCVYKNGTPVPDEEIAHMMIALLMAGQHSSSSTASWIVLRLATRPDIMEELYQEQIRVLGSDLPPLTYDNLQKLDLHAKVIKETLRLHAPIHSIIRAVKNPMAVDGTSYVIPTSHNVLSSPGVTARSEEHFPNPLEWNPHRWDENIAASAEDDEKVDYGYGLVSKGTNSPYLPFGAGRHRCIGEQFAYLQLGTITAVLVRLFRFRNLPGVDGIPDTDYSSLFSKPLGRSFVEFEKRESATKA
Description: The concentration of AfCYP51A and AfCYP51B, purified using Ni-NTA affinity chromatography and used for the spectrophotometric type I and type II binding assays, was calculated using an extinction co-efficient of λ417nm = 117 mM^−1 cm^−1 applied to the absolute absorption spectrum of the preparations. In addition, the amount of “active” cytochrome P450 enzyme was determined using the carbon monoxide (CO) binding spectra of these preparations.
Type II binding difference spectra were obtained using 1 μM of affinity-purified CYP51 enzymes. VCZ, PCZ, VT-1161, DCZ, and MCF working solutions were prepared in DMSO, while FLC was prepared in Milli-Q water. Azole drugs were added to the sample cuvette, and corresponding amounts of DMSO or Milli-Q water were added to the reference cuvette. Drug binding curves were plotted using the difference spectrum peak and trough detected in the range of 410–425 nm. Dissociation constants (Kd) were determined by nonlinear regression (Levenberg–Marquardt algorithm) of the difference in absorbance between the peak and trough against the azole concentration using a rearrangement of the Morrison equation or the Hill equation [7]. GraphPad Prism 9.2.0 software was used to identify the best fit for the data.

[12] = test system: S. cerevisiae Y2300 ADΔΔ CYP51 (ScCYP51); assay: MIC80 susceptibility, strain Y2300 (Table S1); format: cell-based, Saccharomyces cerevisiae; conditions: Table S1; strain Y2300 ADΔΔ CYP51
Description: as §1, with “clones. […]” for “clones.”
(§2) Table S1. Azole susceptibilities of ScCYP51 and ScCYP51 T322I expressed
(§3) Data for each strain was obtained for […] in three biological replicates.

[13] = test system: S. cerevisiae Y2305 ADΔΔ CYP51 T322I (ScCYP51 T322I); assay: MIC80 susceptibility, strain Y2305 (Table S1); format: cell-based, Saccharomyces cerevisiae
Description: as §1, with “clones. […]” for “clones.”
as §2, §3

[14] = Saccharomyces cerevisiae, 48 h, pH 6.8
[15] = Saccharomyces cerevisiae, 48 h, read-out: MIC80
[16] = Saccharomyces cerevisiae, Table 3, strain ARE, ± SD, read-out: MIC80
[17] = Saccharomyces cerevisiae, Table 3, strain ARE Y121F, ± SD, read-out: MIC80
[18] = Saccharomyces cerevisiae, Table 3, strain ARE T289A, read-out: MIC80
[19] = Saccharomyces cerevisiae, Table 3, strain ARE Y121F T289A, ± SD, read-out: MIC80
[20] = Saccharomyces cerevisiae, Table 3, strain ARE I301T, read-out: MIC80
[21] = Saccharomyces cerevisiae, Table 3
[22] = Saccharomyces cerevisiae, Table 3, read-out: MIC80
[23] = Table 3, strain ARE Y121F, ± SD
[24] = Table 3, strain ARE Y121F T289A, ± SD

## CC1COC(Cn2cncn2)(c2ccc(Oc3ccc(Cl)cc3)cc2Cl)O1 (centres unmarked) [DCZ, difenoconazole]
[1]
  MIC80: < 0.01 µM
[2]; [14]
  MIC80: 0.04 ± 0.02 µM
[2]; Table 2, strain ADLS, SD pH 6.8, 48 h, 30 °C, ± SD
  MIC80: 0.04 ± 0.01 µM
[3]
  MIC80: 0.01 µM
[4]
  MIC80: 0.07 ± 0.01 µM
[5]; [14]
  MIC80: 0.64 ± 0.04 µM
[6]
  increased susceptibility of AfCYP51A Y121F mutant (vs ARE): 2 fold
[6]; [14]
  MIC80: 0.37 ± 0.02 µM
[7]
  greater susceptibility (MIC80) of strain T289A compared with strain ARE: 64 fold
[7]; Saccharomyces cerevisiae, 48 h, pH 6.8, Table 2, strain T289A, SD pH 6.8, 48 h, 30 °C
  MIC80: < 0.01 µM
[8]
  increase in resistance (MIC80) of strain Y121F T289A compared with strain ARE: 1.5 fold
[8]; [14]
  MIC80: 0.92 ± 0.07 µM
[9]; Saccharomyces cerevisiae, 48 h, pH 6.8, Table 2, strain I301T, SD pH 6.8, 48 h, 30 °C
  MIC80: 0.35 ± 0.06 µM
[10]
  MIC80: < 0.01 µM
[11]; Saccharomyces cerevisiae, Table 2, SD pH 6.8, 48 h, 30 °C, read-out: MIC80
  MIC80: < 0.01 µM
AfCYP51B-6×His; 1 μM enzyme
  λpeak (type II difference spectrum): 426 nm
  λtrough (type II difference spectrum): 410 nm
AfCYP51B-6×His; 1 μM enzyme, Hill equation
  ΔAmax (type II binding): 0.10
AfCYP51B-6×His; type II binding
  Hill Number: 1.55
AfCYP51B-6×His; type II binding, 1 μM enzyme, Hill equation
  Kd: 1760 ± 80 nM

## CCC(C)n1ncn(-c2ccc(N3CCN(c4ccc(OCC5COC(Cn6cncn6)(c6ccc(Cl)cc6Cl)O5)cc4)CC3)cc2)c1=O (centres unmarked) [ITC]
[12]
  MIC80: 0.15 ± 0.01 µM
[13]
  MIC80: 0.13 ± 0.01 µM

## C[C@@H](c1nc(-c2ccc(C#N)cc2)cs1)[C@](O)(Cn1cncn1)c1cc(F)ccc1F [IVC, isavuconazole]
[5]
  lower susceptibility of strain ARE compared to strain BRE: 2 fold
[5]; [15]
  MIC: < 0.0156 µM
[5]; [16]
  MIC80: 0.021 ± 0.007 µM
[6]
  increase in resistance (MIC80) of strain Y121F compared with strain ARE: 3- to 5 fold and 3 fold
[6]; [17]
  MIC80: 0.071 ± 0.014 µM
[7]; [18]
  MIC80: 0.0102 ± 0.0057 µM
[8]
  increase in resistance (MIC80) of strain Y121F T289A compared with strain ARE: 3- to 5 fold
[8]; [19]
  MIC80: 0.11 ± 0.011 µM
[9]; [20]
  MIC80: 0.0119 ± 0.0028 µM
[11]; [21]
  MIC: < 0.0156 µM
[11]; [22]
  MIC80: 0.0109 ± 0.003 µM

## OC(Cn1cncn1)(Cn1cncn1)c1ccccc1 [MCC7915]
[5]; Table 3, strain ARE, ± SD
  MIC80: 427 ± 23 µM
[5]; strain ARE
  reduced susceptibility compared to FLC: 2.5 fold
[6]; [23]
  MIC80: 180 ± 11 µM
[7]; Table 3, strain ARE T289A
  MIC80: 248 ± 23 µM
[8]; [24]
  MIC80: 219 ± 29 µM
[9]; Table 3, strain ARE I301T
  MIC80: 278 ± 45 µM
[11]; Table 3
  MIC80: 223 ± 79 µM
[11]
  reduced susceptibility compared to FLC: 50 fold

## OC(Cn1cncn1)(Cn1cncn1)c1ccccc1F [MCC7916]
[5]; Table 3, strain ARE, ± SD
  MIC80: 120 ± 40 µM
[6]; [23]
  MIC80: 80 ± 17 µM
[7]; Table 3, strain ARE T289A
  MIC80: 52 ± 6 µM
[8]; [24]
  MIC80: 198 ± 41 µM
[9]; Table 3, strain ARE I301T
  MIC80: 51 ± 6 µM
[11]; Table 3
  MIC80: 21 ± 3 µM

## OC(Cn1cncn1)(Cn1cncn1)c1ccc(F)cc1 [MCC7917]
[5]; Table 3, strain ARE, ± SD
  MIC80: 411 ± 30 µM
[6]; [23]
  MIC80: 179 ± 9 µM
[7]; Table 3, strain ARE T289A
  MIC80: 103 ± 11 µM
[8]; [24]
  MIC80: 242 ± 41 µM
[9]; Table 3, strain ARE I301T
  MIC80: 257 ± 37 µM
[11]; Table 3
  MIC80: 38 ± 11 µM

## OC(Cn1cncn1)(Cn1cncn1)c1cc(F)ccc1F [MCC8768]
[5]; Table 3, strain ARE, ± SD
  MIC80: 354 ± 76 µM
[5]; strain ARE
  reduced susceptibility compared to FLC: ~ 3 fold
[6]; [23]
  MIC80: 324 ± 109 µM
[7]; Table 3, strain ARE T289A
  MIC80: 106 ± 28 µM
[7]; strain T289A
  reduced susceptibility compared to FLC: > 6 fold
[8]; [24]
  MIC80: 1025 ± 148 µM
[9]; Table 3, strain ARE I301T
  MIC80: 211 ± 21 µM
[9]; strain I301T
  reduced susceptibility compared to FLC: ~ 3 fold
[11]; Table 3
  MIC80: 25 ± 8 µM
[11]
  reduced susceptibility compared to FLC: > 6 fold

## C[C@@H](c1nc(-c2ccc(C#N)cc2)cs1)[C@](O)(Cn1cncn1)c1ccc(F)cc1F [RVC, ravuconazole]
[5]
  lower susceptibility of strain ARE compared to strain BRE: 2 fold
[5]; [15]
  MIC: < 0.0156 µM
[5]; [16]
  MIC80: 0.0088 ± 0.0023 µM
[6]
  increase in resistance (MIC80) of strain Y121F compared with strain ARE: 3- to 5 fold and 6 fold
[6]; [17]
  MIC80: 0.047 ± 0.005 µM
[7]; [18]
  MIC80: 0.0032 ± 0.0015 µM
[8]
  increase in resistance (MIC80) of strain Y121F T289A compared with strain ARE: 3- to 5 fold
[8]; [19]
  MIC80: 0.033 ± 0.006 µM
[9]; [20]
  MIC80: 0.0034 ± 0.0015 µM
[11]; [21]
  MIC: < 0.0156 µM
[11]; [22]
  MIC80: 0.0038 ± 0.0008 µM
